The record followed here is ChEMBL document CHEMBL1130639, “Synthesis of anti-rheumatic agent epoxyquinomicin B” (Bioorg Med Chem Lett, 1998).

The data set can be described thus: Lethal dose upon intraperitoneal administration. It is filed as ADME. Conditions: ip.

Usually LD50 stands for the dose at which mortality reaches 50%. Low values mean a more toxic substance, high ones a less toxic substance. The compound `O=C(NC1=CC(=O)[C@]2(CO)O[C@@H]2C1=O)c1ccccc1O` registered an LD50 of 50 mg/kg.
